The target in this experiment is Induced myeloid leukemia cell differentiation protein Mcl-1 (Homo sapiens) (UniProt Q07820). Nature of the experiment: Mcl-1/Noxa binding inhibitor potency, dose response, biochemical, TR-FRET (AID 1417). Particulars: Mcl-1/Noxa peptide interaction, cell-free TR-FRET (terbium/rhodamine), 2 h; measured here: absolute IC50. For orientation: In TR-FRET formats the signal depends on donor and acceptor labels being close together.
Chain of Induced myeloid leukemia cell differentiation protein Mcl-1 (Homo sapiens) (Q07820 whole entry, looked up): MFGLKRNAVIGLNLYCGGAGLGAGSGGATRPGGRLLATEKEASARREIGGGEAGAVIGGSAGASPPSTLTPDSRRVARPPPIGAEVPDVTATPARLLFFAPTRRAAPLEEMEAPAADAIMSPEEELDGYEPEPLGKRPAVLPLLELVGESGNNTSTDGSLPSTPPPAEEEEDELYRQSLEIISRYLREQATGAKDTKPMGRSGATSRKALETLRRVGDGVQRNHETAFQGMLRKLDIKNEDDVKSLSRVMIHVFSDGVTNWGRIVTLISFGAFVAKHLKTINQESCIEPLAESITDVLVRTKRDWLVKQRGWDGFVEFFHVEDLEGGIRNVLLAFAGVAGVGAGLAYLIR
With `C=C(C)C(=O)Nc1cccc(C2=NOC3(C2)C[C@H](C(N)=O)N(C(=O)C(c2ccccc2)c2ccccc2)C3)c1` (some centres not stated), the IC50 – broadly, the concentration that inhibits the measured activity by half – came out at 4.43 µM. That is a single-digit micromolar value.
In turn, `Cc1ccc(-c2nc3c(c(=O)[nH]c(=O)n3Cc3ccccc3)n2C)o1` registered an IC50 of under 0.4 µM.
In turn, `Cc1ccc(C2C(/C=C3/SC(=S)NC3=O)=C(c3cccs3)Oc3ccccc32)cc1` (configuration not stated) returned an IC50 of under 0.4 µM.
Turning to `Cc1ccc2c(c1)NC(=O)c1cccnc1N2`, the IC50 was over 54 µM.
The result for `CN(C)c1ccc(C(CNC(=O)c2ccc(F)cc2)c2c[nH]c3ccccc23)cc1` (configuration not stated) reads over 54 µM.
For the molecule `CC(/C=N/NC(=O)c1cc(-c2ccc3ccccc3c2)n[nH]1)=C\c1ccco1`, the IC50 amounted to 4.91 µM.
Molecule `O=C(Nc1ccc(Cl)cc1)Nc1nnc(/C=C/c2ccccc2)s1` displayed an IC50 of 4.06 µM.
Molecule `Cc1ccc(Cn2c(=N)c(C(=O)NCc3ccco3)cc3c(=O)n4ccccc4nc32)cc1` registered an IC50 of 3.6 µM.
The result for `CCCCNC(=O)c1ccc2nc(-c3ccco3)c(-c3ccco3)nc2c1` reads under 0.4 µM; that for `Cc1ccc(N=C2NC(=O)S/C2=C\c2ccco2)cc1`, 8.57 µM; that for `O=C(N/N=C/c1ccc(-c2ccccc2C(=O)O)o1)c1cccs1`, 7.88 µM.
The result for `Cc1ccc(S(=O)(=O)Nc2ccc(N(C)C)cc2)cc1` reads over 54 µM; that for `Cc1ccc(C(=O)NNc2c3ccccc3nc3ccccc23)cc1`, 9.97 µM; that for `O=C(CN1CCN(c2ccc(O)cc2)CC1)Nc1cc([N+](=O)[O-])ccc1Cl`, 6.48 µM.
`CCCCn1c(NCc2ccc(N(C)C)cc2)nc2ccccc21`: the IC50 was found to be 1.14 µM.
In turn, `CCN(CC)c1nc2c3c(nc4c(c3c1C#N)CC(=O)N4c1ccc(Cl)cc1)NC(C)=N2` had a 50% inhibitory concentration (IC50) of 3.19 µM.
`C=CCN1C(=O)/C(=C2/C(=O)N(CC(=O)O)c3ccccc32)S/C1=N/c1nccs1`: the half-inhibitory concentration (IC50) was under 0.4 µM.
`CCC(=O)NC1=C(Cl)C(=O)C(NC(=O)CC)=C(Cl)C1=O` showed an IC50 of under 0.4 µM.
Then `CCc1cc(C(=O)N=Nc2c(O)[nH]c3ccc([N+](=O)[O-])cc23)c2ccccc2n1`, with 5.99 µM; and `COc1ccc(/C=C/C(=O)NC(=S)Nc2cc([N+](=O)[O-])ccc2O)cc1OC`, with 1.12 µM.
Turning to `Oc1ccc(-c2cn3c(n2)SCC3)cc1O`, the IC50 was 1.94 µM.
As to `CCCCN(CC)CCNc1c(N2CCN(C(=O)OCC)CC2)c(=O)c1=O`, the IC50 was determined as 2.17 µM.
Then `CCOc1ccc(-c2ccc(/C=C3/C(=N)N4C=CSC4=NC3=O)o2)c([N+](=O)[O-])c1`, with 1.58 µM; and `CCOc1ccc2nc(N3C(=O)/C(=C/c4ccc(Cl)cc4)NC3=S)sc2c1`, with 1.55 µM; and `CC(/C=C1\SC(=S)N(CCCC(=O)Nc2ccc(C(=O)O)c(O)c2)C1=O)=C\c1ccccc1`, with under 0.4 µM.
Regarding `COc1ccc2nc(N3C(=O)/C(=C/c4ccc(Cl)cc4)NC3=S)sc2c1`, the IC50 worked out at 1.43 µM.
For the molecule `CS(=O)(=O)c1ccc2c(c1)SC1=NC(=O)/C(=C/c3ccco3)C(=N)N12`, the IC50 is 2.19 µM.
Then `CCOC(=O)/C=C(\C)Sc1cc(O)c2ccccc2c1O`, with under 0.4 µM.
`CC(C)n1c(Nn2cnnc2)nc2ccccc21` showed an IC50 of over 54 µM.
Take `Cc1nc(NC(=O)c2ccccc2)sc1-c1csc(Nc2ccc(C(=O)O)cc2)n1`: the IC50 came to 3.6 µM.
The result for `Cc1ccc(O)c(NC2=C(Cl)C(=O)N(Cc3ccccc3)C2=O)c1` reads over 54 µM; that for `COc1ccc(NC(=O)c2cc(-c3ccco3)nc3ccccc23)cc1S(=O)(=O)N1CCOCC1`, under 0.4 µM; that for `Cn1c(=O)c2c(nc(NCc3ccco3)n2CC(O)COc2ccccc2)n(C)c1=O` (configuration not stated), over 54 µM.
`O=C(CSc1n[nH]c(=O)[nH]c1=O)Nc1ccc2c(c1)C(=O)c1ccccc1C2=O` registered an IC50 of over 54 µM.
For `CSCc1nc2sc(C(=O)Nc3nc(C)cs3)c(C)c2c(=O)[nH]1`, the IC50 is 4.1 µM.
Take `CCOC(=O)c1c(NC(=O)c2cc(-c3ccc(O)cc3)on2)sc(C(C)=O)c1C`: the IC50 was 10.9 µM. This IC50 is about 2.7-fold higher than that of the molecule before.
`O=C1c2ccccc2C(=O)N1/N=C/c1ccc(O)c(O)c1O` showed an IC50 of under 0.4 µM.
Take `COC(=O)c1ccc(=O)c2nc3/c(=C/O)c(O)cc(=O)c3[nH]c12`: the IC50 was under 0.4 µM.
The molecule `COC(=O)C1=C(C(=O)OC)C(c2cc(Cl)ccc2O)c2sc(=O)[nH]c2S1` (configuration not stated) registered an IC50 of 3.35 µM.
The result for `Cc1ccc(-c2nnc3ccc(SC(C)C(=O)O)nn23)cc1` (configuration not stated) reads 4.71 µM; that for `O=C(Nc1cccc(Oc2ccc(C(=O)O)c(C(=O)O)c2)c1)c1ccc(-c2ccccc2)cc1`, 3.61 µM.
Then `C(=C\c1ccco1)/c1ccc2ccccc2n1`, with 4.18 µM; and `COCCN1Cc2cccc(C(=O)Nc3cccc(C)c3C)c2C1=O`, with over 54 µM.
In the case of `CC(OC(=O)c1cccc(N2C(=O)c3ccccc3C2=O)c1)C(=O)Nc1ccc(N(C)C)cc1` (configuration not stated), the IC50 is over 54 µM.
The result for `O=C(Nc1ccc(N2CCOCC2)cc1)Nc1ccc2nc(-c3ccco3)c(-c3ccco3)nc2c1` reads under 0.4 µM; that for `C/C(=N\NC(=O)c1cccc(N/N=C(\C)c2cc(O)ccc2O)c1)c1cc(O)ccc1O`, under 0.4 µM.
`CC1=NN(c2ccccc2)C(=O)/C1=C/c1c(O)n(-c2ccc(F)c(Cl)c2)[nH]c1=O` returned an IC50 of 4.79 µM.
Take `COc1ccc(CN2C(=O)NC(=O)/C(=C/c3ccc([N+](=O)[O-])o3)C2=O)cc1`: the IC50 amounted to 2.81 µM.
As for `O=C(O)C1Nc2c(C(=O)N3CCOCC3)cccc2C2C=CCC12` (configuration not stated), the IC50 is over 54 µM.
`COc1ccccc1C1NC=C([N+](=O)[O-])C=C1[N+](=O)[O-]` (configuration not stated) displayed an IC50 of over 54 µM.
Molecule `COc1ccc(N2CCC(CNC(=O)Nc3ccc(Cl)cc3)C2)cc1` (configuration not stated) yielded an IC50 of 51.7 µM.
`COc1ccc(C(=O)Nc2cccc(/C=C(\CCC(=O)O)c3nc4ccccc4s3)c2)cc1` registered an IC50 of 3.94 µM.
Then `Brc1ccc(C2Nc3cccc4cccc(c34)N2)s1`, with under 0.4 µM.
`COc1ccc2c(c1)CC/C(=C\Nc1ccc3c(c1)OCO3)C2=O` registered an IC50 of over 54 µM.
Molecule `O=C(COc1ccc2ccccc2c1)NNC(=O)c1ccc([N+](=O)[O-])cc1` displayed an IC50 of 8.48 µM.
On to `CCN1C(=O)C(C)S/C1=N\S(=O)(=O)c1ccc(F)cc1` (configuration not stated), for which the IC50 is over 54 µM.
With `COc1cnn(-c2ccccc2)c(=O)c1SCc1ccc(Cl)cc1Cl`, the concentration for half-maximal inhibition (IC50) was over 54 µM.
The result for `COc1cc(/C=C(\C#N)c2nc3ccccc3s2)cc([N+](=O)[O-])c1O` reads 3.37 µM.
As for `O=C1C=CC(=O)C(C2=C3C(=O)N(CCc4ccccc4)CC(=O)N3CCC2)=C1`, the IC50 is over 54 µM.
As to `COc1ccc(/C=C2/SC(=S)N(c3ccc(S(=O)(=O)Nc4nccs4)cc3)C2=O)cc1`, the IC50 amounted to 0.999 µM.
Molecule `CCCOc1ccc(C(=O)Nc2ccc(N(C)C)cc2)cc1` came in with an IC50 of over 54 µM.
Take `COCCNC(=O)Nc1ccc2nc(-c3ccco3)c(-c3ccco3)nc2c1`: the IC50 is under 0.4 µM.
Molecule `O=C1CCCC2=C1C(c1ccc(O)c(O)c1)c1c(ccc3ncccc13)N2` (configuration not stated) returned an IC50 of under 0.4 µM.
`CC(/C=C1\SC(=S)N(c2ccc(C(=O)O)cc2)C1=O)=C\c1ccccc1` came in with an IC50 of 2.81 µM.
As to `O=C1CSC(=S)N1/N=C/c1ccc(O)c([N+](=O)[O-])c1`, the IC50 turned out to be 1.39 µM. This IC50 lies about 2-fold lower than the previous one.
As for `O=C(NC1CC1)c1cc(-c2ccco2)nc2ccccc12`, the IC50 is under 0.4 µM.
In the case of `COC(=O)CSc1ncnc2c1sc1nc(-c3ccco3)c3c(c12)CC(C)(C)OC3`, the IC50 stood at 3.55 µM.
The molecule `N[C@@H](Cc1cc(I)c(Oc2ccc(O)c(I)c2)c(I)c1)C(=O)O` showed an IC50 of under 0.4 µM.
Molecule `O=[N+]([O-])c1ccccc1/C=C/C=N/n1c(-c2ccccc2)n[nH]c1=S` showed an IC50 of over 54 µM.
Take `COc1cccc(-n2c(SCc3cc(=O)oc4cc(O)c(O)cc34)nc3ccccc3c2=O)c1`: the IC50 stood at 2.18 µM.
Then `O=C(CSc1ccsc1[N+](=O)[O-])Nc1cc(F)ccc1F`, with over 54 µM; and `Nc1cc2c(cc1[N+](=O)[O-])OCO2`, with 6.98 µM; and `CCOC(=O)c1sc(NC(=O)Nc2ccc(Cl)cc2)cc1C`, with 4.11 µM.
`N=C1/C(=C\c2ccc(-c3cccc(C(=O)O)c3)o2)C(=O)N=C2SC=C(c3ccccc3)N12` registered an IC50 of 1.3 µM.
Turning to `CC12CN3CC(C)(CN(C1)C3c1ccccc1Cl)C2O` (configuration not stated), the IC50 is over 54 µM.
Then `Cc1[nH]n(-c2ncc(-c3ccc(Cl)cc3)s2)c(=O)c1C(c1ccc(Cl)cc1)C(C#N)C#N` (configuration not stated), with 1.67 µM; and `COC(=O)Nc1ccc(S(=O)(=O)NCc2ccccn2)cc1`, with over 54 µM.
Regarding `O=C(O[C@@H]1OC2COC(=O)c3cc(O)c(O)c(O)c3-c3c(cc(O)c(O)c3O)C(=O)O[C@@H]([C@H]1O)[C@@H]2O)c1cc(O)c(O)c(O)c1`, the IC50 is under 0.4 µM.
For the molecule `COc1cc(/C=C2/SC(=S)NC2=O)ccc1OS(=O)(=O)c1ccc(C)cc1`, the IC50 worked out at 3.26 µM.
Then `O=[N+]([O-])c1ccc(-c2cc(-c3ccc(Cl)cc3)n[nH]2)cc1`, with 5.61 µM; and `CSc1nc(NCCOCCO)c2sc3nc(-c4ccco4)c4c(c3c2n1)CCC4`, with under 0.4 µM; and `Cc1ccc(C2=NC(=O)/C(=C/c3cc(O)c(O)c(Br)c3)S2)cc1`, with under 0.4 µM.
In the case of `CN(C)c1ccc(/C=N/NC(=O)c2cccc(C(=O)N/N=C/c3ccc(N(C)C)cc3)n2)cc1`, the IC50 was under 0.4 µM.
Regarding `O=C(NCCO)c1ccc2nc(-c3ccco3)c(-c3ccco3)nc2c1`, the IC50 was determined as 0.527 µM. That is a sub-micromolar value.
The result for `CCc1ccc(S(=O)(=O)/N=C2\C=CC(=O)c3ccccc32)cc1` reads under 0.4 µM.
The result for `CCN1C(=O)/C(=C\c2ccc(-c3ccc([N+](=O)[O-])cc3OC)o2)SC1=Nc1cccc(C(=O)O)c1` reads under 0.4 µM; that for `C/C=C\C=C/C(=O)Nc1cccc(C2=NOC3(C2)C[C@@H](C(N)=O)N(C(=O)c2ccccc2)C3)c1` (some centres not stated), 50.9 µM.
`O=C1CSC(=S)N1/N=C/c1ccc(O)c(O)c1O` registered an IC50 of under 0.4 µM.
`[O-][n+]1onc2c1CCC(=N/O)/C2=N\Nc1ccccc1` registered an IC50 of 1.06 µM.
The result for `CN(C)c1ccc(NC(=O)c2ccc(COc3cccc(Cl)c3)o2)cc1` reads under 0.4 µM; that for `Cc1ccc(S(=O)(=O)C(CCC(=O)N2CCOCC2)S(=O)(=O)c2ccc(C)cc2)cc1`, over 54 µM.
The result for `CN(C)c1ccc(C(CNC(=O)c2ccccc2Br)c2c[nH]c3ccccc23)cc1` (configuration not stated) reads over 54 µM.

The record behind these values is PubChem BioAssay AID1417 (Emory University Molecular Libraries Screening Center, 2008).
